This experiment has as its system human EPO expression. The experiment can be described thus: In vivo assay: human EPO expression in plasma after IV injection of LNP containing human EPO mRNA (human EPO ELISA). As to conditions: 0.5 mg/kg LNP with human EPO mRNA, 4 h post dosing, Balb/C mice plasma (n = 4-5), cationic lipid at 55 mol %, 1.6 mol % PEG2000-C-DMA, 33% cholesterol, 11% DSPC. Also noted: species or system female Balb/C mice. The protocol: Lipid stocks were prepared (about 7 mg/mL total lipid content) in 100% ethanol, using the lipid identities and molar ratios described. The mRNA was diluted in acetate pH 5 and nuclease-free water to reach a concentration of 0.366 mg/mL mRNA in 100 mM acetate pH 5. Equal volumes of each solution were blended at 400 mL/min in a T-connector, and diluted with about 4 volumes of PBS, pH 7.4, using the direct dilution method described in U.S. Pat. No. 9,404,127. Formulations were then placed in Slide-A-Lyzer dialysis units (MWCO 10,000) and were dialyzed overnight 10 mM Tris, 500 mM NaCl pH 8 (Tris/NaCl buffer). Following dialysis the formulations were concentrated to about 0.6 mg/mL using VivaSpin concentrator units (MWCO 100,000) and then filtered through a 0.2 um syringe filter.
The various lipids of the present invention were formulated in LNP compositions with the following molar ratios: DSPC (11%):Chol (33%):PEG2000-C-DMA (1.6%):Lipid X (55%). A composition was generated comprising the following components: • (a) nucleic acid; • (b) a mixture of cholesterol and DSPC; • (c) a conjugated lipid of formula: […]
Generally, the LNP were injected intravenously at 0.5 mg/kg to female Balb/C mice, 5-8 weeks old and blood was collected at 4-6 hours post dosing; blood is collected into K2EDTA and processed to plasma, then stored frozen at −80° C. until analysis. Activity was assayed by testing the plasma for human EPO expression using an human EPO ELISA kit either from StemCell (catalogue #01630) or R&D Systems (catalogue DEP00) following the manufacturer's instructions.
For orientation: ELISA stands for enzyme-linked immunosorbent assay.
Turning to `CCCCC/C=C\CCCC(CCC/C=C\CCCCC)CO[Si](CCCN(C)C)(OCC(CCC/C=C\CCCCC)CCC/C=C\CCCCC)OCC(CCC/C=C\CCCCC)CCC/C=C\CCCCC` [Example 22], the EPO is on record as 15075 mU/mL.
As for `CCCCC/C=C\CCCO[Si](CCCCN(C)C)(OCCC/C=C\CCCCC)OCCC/C=C\CCCCC` [Example 4], the figure is 1300807 mU/mL.
Consider `CCCCCCC(CCCC)CO[Si](CCCCN(C)C)(OCC(CCCC)CCCCCC)OCC(CCCC)CCCCCC` (stereo not shown) [Example 19], for which the EPO turned out to be 47218 mU/mL.
As to `CCCCC/C=C\CCCC(CCC/C=C\CCCCC)O[Si](CCCCN1CCC(CO)CC1)(OC(CCC/C=C\CCCCC)CCC/C=C\CCCCC)OC(CCC/C=C\CCCCC)CCC/C=C\CCCCC` [Example 15], the EPO amounted to 18385 mU/mL.
As for `CN(C)CCCC[Si](OCC12CC3CC(CC(C3)C1)C2)(OCC12CC3CC(CC(C3)C1)C2)OCC12CC3CC(CC(C3)C1)C2` [Example 17], the figure is 226593 mU/mL; as for `C=C(C)C1CC=C(CO[Si](CCCCN(C)C)(OCC2=CCC(C(=C)C)CC2)OCC2=CCC(C(=C)C)CC2)CC1` (stereo not shown) [Example 23], 17488 mU/mL.
The result for `CCCCC/C=C\CCCO[Si](CCCCCN(C)C)(OCCC/C=C\CCCCC)OCCC/C=C\CCCCC` [Example 20] reads 2242992 mU/mL.
Turning to `CCCCC/C=C\CCCO[Si](CCCN(C)C)(OCCC/C=C\CCCCC)OCCC/C=C\CCCCC` [Example 2], the EPO is given as 144176 mU/mL.
Regarding `CCCCCCCCCO[Si](CCCN(C)C)(OCCCCCCCCC)OCCCCCCCCC` [Example 6], the EPO is reported as 25596 mU/mL.
As for `CCCCC/C=C\CCCO[Si](CCCCCCN(C)C)(OCCC/C=C\CCCCC)OCCC/C=C\CCCCC` [Example 21], the figure is 1470419 mU/mL.
The result for `CCCCC/C=C\CCCO[Si](CCCCN1CCC(CO)CC1)(OCCC/C=C\CCCCC)OCCC/C=C\CCCCC` [Example 9] reads 37927 mU/mL.
The result for `CCCCCCCCCCO[Si](CCCCN(C)C)(OCCCCCCCCCC)OCCCCCCCCCC` [Example 11] reads 256974 mU/mL.
`CCCCC/C=C\CCCO[Si](CCCCN(C)CCO)(OCCC/C=C\CCCCC)OCCC/C=C\CCCCC` [Example 8] had an EPO of 30446 mU/mL.

The values are drawn from patent US12350383B2, “Cationic lipids containing silicon” (ARBUTUS BIOPHARMA CORPORATION, priority 2018, dated 2025).
